Molecular target: T1, Human Farnesoid X Receptor (NR1H4, FXR) (Homo sapiens, UniProt Q96RI1)
T1 sequence (Q96RI1 1-486): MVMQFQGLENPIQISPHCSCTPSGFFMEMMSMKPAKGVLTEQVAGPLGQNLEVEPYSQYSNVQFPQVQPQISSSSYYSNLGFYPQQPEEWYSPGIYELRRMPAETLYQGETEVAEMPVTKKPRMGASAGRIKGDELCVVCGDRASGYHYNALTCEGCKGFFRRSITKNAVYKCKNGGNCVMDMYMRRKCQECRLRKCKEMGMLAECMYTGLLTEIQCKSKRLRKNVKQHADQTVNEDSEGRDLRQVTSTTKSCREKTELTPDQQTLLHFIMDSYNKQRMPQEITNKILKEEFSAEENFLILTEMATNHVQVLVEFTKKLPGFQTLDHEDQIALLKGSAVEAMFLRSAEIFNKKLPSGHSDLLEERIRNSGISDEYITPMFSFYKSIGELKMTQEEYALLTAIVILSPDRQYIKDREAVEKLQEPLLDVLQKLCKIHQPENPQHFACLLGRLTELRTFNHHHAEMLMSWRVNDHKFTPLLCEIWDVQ
Experiment: FXR reporter assay, EC50 and efficacy (Indigo Biosciences luciferase reporter cells)
Type: cell-based
Conditions: for Efficacy: maximum point on the dose response curve, GW4064 designated as 100%
Description: The compounds of the invention were assayed for agonist activity at the FXR receptor.
Dose-response assays were performed as described in the technical manual of the Human Farnesoid X Receptor (NR1H4, FXR) Reporter Assay System (Indigo Biosciences Human Farnesoid X Receptor (NR1H4, FXR) Reporter Assay System, Technical Manual (version 7.1b), at the World Wide Web (www)indiqobiosciences.com).
FXR reporter cells consisting of an FXR-responsive promoter gene functionally linked to the luciferase gene were defrosted and seeded into a 96-well plate and these cells were immediately dosed with the test compounds at different concentrations (10-0.05 μM) according to the manufacturer's protocol. […] Following this, the induction of luciferase activity, which is the measure of the agonist activity, was quantified by using luminometer (TECAN) according to the manufacturer's protocol.

Row | Structure (SMILES) | EC50 [nM] | Efficacy [%]
1 | CC[C@@H]1[C@@H]2[C@@H](F)[C@H](O)CC[C@]2(C)C2CC[C@@]3(C)C(CCC3[C@H](C)CCNC(=O)NS(=O)(=O)c3ccccc3F)C2[C@@H]1O (stereo partly drawn) [Compound 8, N,N′-(3α,7α-Dihydroxyl-4β-fluoro-6α-ethyl-24-nor-5β-cholan-23-yl)-o-fluorobenzene sulfonyl urea] | 43 | 159
2 | CC[C@@H]1[C@@H]2[C@@H](F)[C@H](O)CC[C@]2(C)C2CC[C@@]3(C)C(CCC3[C@H](C)CCNC(=O)NS(=O)(=O)c3ccc(F)cc3)C2[C@@H]1O (stereo partly drawn) [Compound 6, N,N′-(3α,7α-Dihydroxyl-4β-fluoro-6α-ethyl-24-nor-5β-cholan-23-yl)-p-fluorobenzene sulfonyl urea] | 32 | 187
3 | CC[C@H]1[C@@H](O)[C@@H]2[C@H](CC[C@]3(C)[C@@H]([C@H](C)CCC(=O)NS(=O)(=O)c4cccc(F)c4)CC[C@@H]23)[C@@]2(C)CC[C@@H](O)[C@H](F)[C@@H]12 [Compound 16, N-(3α,7α-Dihydroxyl-4β-fluoro-6α-ethyl-5β-cholan-24-oyl)-m-fluorophenyl sulfonamide] | 46 | 143
4 | CC[C@@H]1[C@@H]2[C@@H](F)[C@H](O)CC[C@]2(C)C2CC[C@@]3(C)C(CCC3[C@H](C)CCNC(=O)NS(=O)(=O)c3ccc(C(F)(F)F)cc3)C2[C@@H]1O (stereo partly drawn) [Compound 9, N,N′-(3α,7α-Dihydroxyl-4β-fluoro-6α-ethyl-24-nor-5β-cholan-23-yl)-p-(trifluoromethyl)benzene sulfonyl urea] | 50 | 158
5 | CC[C@@H]1[C@@H]2[C@@H](F)[C@H](O)CC[C@]2(C)C2CC[C@@]3(C)C(CCC3[C@H](C)CCNC(=O)NS(=O)(=O)c3ccccc3C)C2[C@@H]1O (stereo partly drawn) [Compound 5, N,N′-(3α,7α-Dihydroxyl-4β-fluoro-6α-ethyl-24-nor-5β-cholan-23-yl)-o-toluene sulfonyl urea] | 28 | 166
6 | CC[C@H]1[C@@H](O)[C@@H]2[C@H](CC[C@]3(C)[C@@H]([C@H](C)CCC(=O)NS(C)(=O)=O)CC[C@@H]23)[C@@]2(C)CC[C@@H](O)[C@H](F)[C@@H]12 [Comparative compound C, N-(3α,7α-Dihydroxyl-4β-fluoro-6α-ethyl-5β-cholan-24-oyl)-methyl sulfonamide, reference compound] | 192 | 130
7 | CC[C@@H]1[C@@H]2[C@@H](F)[C@H](O)CC[C@]2(C)C2CC[C@@]3(C)C(CCC3[C@H](C)CCNC(=O)NS(=O)(=O)c3ccc(C(C)(C)C)cc3)C2[C@@H]1O (stereo partly drawn) [Compound 3, N,N′-(3α,7α-Dihydroxyl-4β-fluoro-6α-ethyl-24-nor-5β-cholan-23-yl)-4-(tert-butyl) benzene sulfonyl urea] | 19 | 151
8 | CC[C@@H]1[C@@H]2[C@@H](F)[C@H](O)CC[C@]2(C)C2CC[C@@]3(C)C(CCC3[C@H](C)CCNC(=O)NS(=O)(=O)c3cccc(F)c3)C2[C@@H]1O (stereo partly drawn) [Compound 7, N,N′-(3α,7α-Dihydroxyl-4β-fluoro-6α-ethyl-24-nor-5β-cholan-23-yl)-m-fluorobenzene sulfonyl urea] | 38 | 131
9 | CC[C@H]1[C@@H](O)C2C3CCC([C@H](C)CCNC(=O)NS(=O)(=O)c4ccccc4)[C@@]3(C)CCC2[C@@]2(C)CC[C@@H](O)C[C@@H]12 (stereo partly drawn) [Comparative compound A, N,N′-(3α,7α-Dihydroxyl-6α-ethyl-24-nor-5β-cholan-23-yl)-benzene sulfonyl urea, reference compound] | 32 | 147
10 | CC[C@H]1[C@@H](O)[C@@H]2[C@H](CC[C@]3(C)[C@@H]([C@H](C)CCC(=O)NS(=O)(=O)c4cccc(C(F)(F)F)c4)CC[C@@H]23)[C@@]2(C)CC[C@@H](O)[C@H](F)[C@@H]12 [Compound 19, N-(3α,7α-Dihydroxyl-4β-fluoro-6α-ethyl-5β-cholan-24-oyl)-3-trifluoromethylphenyl sulfonamide] | 50 | 136
11 | CC[C@@H]1[C@@H]2[C@@H](F)[C@H](O)CC[C@]2(C)C2CC[C@@]3(C)C(CCC3[C@H](C)CCNC(=O)NS(=O)(=O)c3ccc(C)cc3)C2[C@@H]1O (stereo partly drawn) [Compound 1, N,N′-(3α,7α-Dihydroxyl-4β-fluoro-6α-ethyl-24-nor-5β-cholan-23-yl)-p-toluene sulfonyl urea] | 18 | 193
12 | CC[C@@H]1[C@@H]2[C@@H](F)[C@H](O)CC[C@]2(C)C2CC[C@@]3(C)C(CCC3[C@H](C)CCNC(=O)NS(=O)(=O)c3ccc(OC)cc3)C2[C@@H]1O (stereo partly drawn) [Compound 13, N,N′-(3α,7α-Dihydroxyl-4β-fluoro-6α-ethyl-24-nor-5β-cholan-23-yl)-p-methoxybenzene sulfonyl urea] | 48 | 250
13 | CC[C@@H]1[C@@H]2[C@@H](F)[C@H](O)CC[C@]2(C)C2CC[C@@]3(C)C(CCC3[C@H](C)CCNC(=O)NS(=O)(=O)c3ccccc3C(F)(F)F)C2[C@@H]1O (stereo partly drawn) [Compound 11, N,N′-(3α,7α-Dihydroxyl-4β-fluoro-6α-ethyl-24-nor-5β-cholan-23-yl)-o-(trifluoromethyl)benzene sulfonyl urea] | 123 | 104
14 | CC[C@H]1[C@@H](O)[C@@H]2[C@H](CC[C@]3(C)[C@@H]([C@H](C)CCC(=O)NS(=O)(=O)C4CC4)CC[C@@H]23)[C@@]2(C)CC[C@@H](O)[C@H](F)[C@@H]12 [Comparative compound B, N-(3α,7α-Dihydroxyl-4β-fluoro-6α-ethyl-5β-cholan-24-oyl)-cyclopropyl sulfonamide, reference compound] | 158 | 132
15 | CC[C@@H]1[C@@H]2[C@@H](F)[C@H](O)CC[C@]2(C)C2CC[C@@]3(C)C(CCC3[C@H](C)CCNC(=O)NS(=O)(=O)c3cccc(C)c3)C2[C@@H]1O (stereo partly drawn) [Compound 4, N,N′-(3α,7α-Dihydroxyl-4β-fluoro-6α-ethyl-24-nor-5β-cholan-23-yl)-m-toluene sulfonyl urea] | 23 | 148
16 | CC[C@H]1[C@@H](O)[C@@H]2[C@H](CC[C@]3(C)[C@@H]([C@H](C)CCC(=O)NS(=O)(=O)c4ccccc4F)CC[C@@H]23)[C@@]2(C)CC[C@@H](O)[C@H](F)[C@@H]12 [Compound 17, N-(3α,7α-Dihydroxyl-4β-fluoro-6α-ethyl-5β-cholan-24-oyl)-o-fluorophenyl sulfonamide] | 34 | 121
17 | CC[C@@H]1[C@@H]2[C@@H](F)[C@H](O)CC[C@]2(C)C2CC[C@@]3(C)C(CCC3[C@H](C)CCNC(=O)NS(=O)(=O)c3ccc(OC(F)(F)F)cc3)C2[C@@H]1O (stereo partly drawn) [Compound 12, N,N′-(3α,7α-Dihydroxyl-4β-fluoro-6α-ethyl-24-nor-5β-cholan-23-yl)-4-(trifluoromethoxy)benzene sulfonyl urea] | 27 | 176
18 | CC[C@H]1[C@@H](O)[C@@H]2[C@H](CC[C@]3(C)[C@@H]([C@H](C)CCC(=O)NS(=O)(=O)c4ccc(F)cc4)CC[C@@H]23)[C@@]2(C)CC[C@@H](O)[C@H](F)[C@@H]12 [Compound 15, N-(3α,7α-Dihydroxyl-4β-fluoro-6α-ethyl-5β-cholan-24-oyl)-p-fluorobenzene sulfonamide] | 38 | 98
